Columns and labels:
human FPR2 = human FPR2 (Homo sapiens (Human), UniProt P25090); test: FPR2 cyclic adenosine monophosphate (cAMP) assay; format: cell-based; conditions: CHO cells overexpressing human FPR2; forskolin 5 µM; inhibition of cAMP production; read-out: hFPR2 cAMP2 EC50
Procedure, shortened: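 Inhibition of forskolin-driven (5 µM) cAMP, with 200 µM IBMX, measured in human FPR2-expressing CHO cells, 2,000 per well, 30 min at room temperature; compounds tested 0.020 nM to 100 µM in 1% DMSO. HTRF 665/590 ratio converted to cAMP via calibration curve, then 4-parameter fit.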

human FPR1 = human FPR1 (Homo sapiens (Human), UniProt P21462); test: FPR1 cyclic adenosine monophosphate (cAMP) assay; format: cell-based; conditions: CHO cells overexpressing human FPR1; forskolin 10 µM; inhibition of cAMP production; read-out: hFPR1 cAMP EC50
Procedure, shortened: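 Human FPR1-expressing CHO cells were used at 4,000 per well, with compound at 0.020 nM–100 µM in 1% DMSO. Potency came from a 4-parameter logistic fit.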

human FPR1, sequence (P21462 whole entry): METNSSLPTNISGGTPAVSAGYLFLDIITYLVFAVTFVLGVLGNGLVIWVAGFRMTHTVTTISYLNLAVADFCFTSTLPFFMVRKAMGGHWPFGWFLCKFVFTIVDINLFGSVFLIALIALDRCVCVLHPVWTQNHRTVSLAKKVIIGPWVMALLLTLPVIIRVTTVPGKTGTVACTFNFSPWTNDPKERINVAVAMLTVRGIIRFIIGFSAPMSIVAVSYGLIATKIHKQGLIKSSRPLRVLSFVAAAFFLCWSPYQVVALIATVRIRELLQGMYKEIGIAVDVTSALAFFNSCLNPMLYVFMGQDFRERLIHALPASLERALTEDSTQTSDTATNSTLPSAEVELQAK
human FPR2, sequence (P25090 whole entry): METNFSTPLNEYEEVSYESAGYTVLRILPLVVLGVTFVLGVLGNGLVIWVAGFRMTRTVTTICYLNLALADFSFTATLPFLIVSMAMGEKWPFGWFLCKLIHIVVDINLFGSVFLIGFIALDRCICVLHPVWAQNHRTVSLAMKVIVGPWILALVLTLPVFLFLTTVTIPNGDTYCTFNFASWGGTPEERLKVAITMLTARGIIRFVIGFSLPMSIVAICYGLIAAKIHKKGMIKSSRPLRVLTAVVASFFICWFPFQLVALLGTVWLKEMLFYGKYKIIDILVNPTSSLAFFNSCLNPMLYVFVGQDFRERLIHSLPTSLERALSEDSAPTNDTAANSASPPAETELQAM

Structure (SMILES)	EC50 (human FPR2) [nM]	EC50 (human FPR1) [nM]
COCC(C(=O)N(C)C)n1cccc(N2C[C@@H](c3c(F)cc(OC)cc3F)[C@H](NC(=O)c3ccc(OC(F)F)cc3)C2=O)c1=O (some centres unmarked) [Example 172]	4.5	39
COc1cc(F)c([C@@H]2CN(c3cccn(CC(C)O)c3=O)C(=O)[C@H]2NC(=O)c2ccc(OC(F)(F)F)cc2)c(F)c1 (some centres unmarked) [Example 173]	4.5	12
COc1cc(F)c([C@@H]2CN(c3cccn(CCO)c3=O)C(=O)[C@H]2NC(=O)c2ccc(OC(F)(F)F)cc2)c(F)c1 [Example 174]	4.5	67
COCC(CO)n1cccc(N2C(=O)[C@@H](NC(=O)c3ccc(OC(F)(F)F)cc3)[C@H](c3c(F)cc(OC)cc3F)[C@@H]2C)c1=O (some centres unmarked) [Example 175]	4.6	9.3
COc1cc(F)c([C@@H]2CN(c3c(C)ccn(CC(C)O)c3=O)C(=O)[C@H]2NC(=O)c2ccc(OC(F)F)cc2)c(F)c1 (some centres unmarked) [Example 176]	4.6	6.5
COc1cc(F)c([C@@H]2CN(c3nc(N(C)C(C)=O)ccc3F)C(=O)[C@H]2NC(=O)c2ccc(OC(F)F)cc2)c(F)c1 [Example 177]	4.6	15
COCCn1ccc(C)c(N2C[C@@H](c3ccc(OC)cc3)[C@H](NC(=O)c3ccc(OC(F)(F)F)cc3)C2=O)c1=O [Example 178]	4.7	0.1
COc1cc(F)c([C@@H]2CN(c3cccn(CC(C)(CO)CO)c3=O)C(=O)[C@H]2NC(=O)c2ccc(OC(F)F)cc2)c(F)c1 [Example 179]	4.7	92
COc1cc(N2C[C@@H](C)N(C)[C@@H](C)C2)nc(N2C[C@@H](c3c(F)cc(OC)cc3F)[C@H](NC(=O)c3ccc(Cl)cc3)C2=O)c1 [Example 180]	4.7	> 10000
COc1cc(F)c([C@@H]2CN(c3nccc(N4C[C@@H](C)N(C)[C@@H](C)C4)c3C(F)(F)F)C(=O)[C@H]2NC(=O)c2ccc(Cl)cc2)c(F)c1 [Example 181]	4.8	990
COc1ccc([C@@H]2CN(c3c(C)ccn(CC(F)F)c3=O)C(=O)[C@H]2NC(=O)c2ccc(OC(F)(F)F)cc2)c(F)c1 [Example 182]	4.8	1.8
CCn1ccc(C)c(N2C[C@@H](c3ccc(OC)cc3F)[C@H](NC(=O)c3ccc(OC(F)(F)F)cc3)C2=O)c1=O [Example 183]	4.8	0.6
COc1cc(F)c([C@@H]2CN(c3cccc(OC(F)F)c3)C(=O)[C@H]2NC(=O)c2ccc(OC(F)(F)F)cc2)c(F)c1 [Example 184]	4.8	9.8
COCCn1ccc(C)c(N2C[C@@H](c3c(F)cc(OC)cc3F)[C@H](NC(=O)c3ccc(OC(F)(F)F)cc3)C2=O)c1=O [Example 185]	4.8	0.7
COc1cc(F)c([C@@H]2CN(c3cccn(CC(OC)C(F)(F)F)c3=O)C(=O)[C@H]2NC(=O)c2ccc(OC(F)F)cc2)c(F)c1 (some centres unmarked) [Example 186]	4.9	3
COc1cc(F)c([C@@H]2CN(c3cccn(CC(C)(CO)CO)c3=O)C(=O)[C@H]2NC(=O)c2ccc(OC(F)(F)F)cc2)c(F)c1 [Example 187]	4.9	38
COc1cc(F)c([C@@H]2CN(c3cccn(C(F)F)c3=O)C(=O)[C@H]2NC(=O)c2ccc(OC(F)(F)F)cc2)c(F)c1 [Example 188]	4.9	38
COc1cc(F)c([C@@H]2CN(c3cc(Cl)cn(C)c3=O)C(=O)[C@H]2NC(=O)c2ccc(Cl)cc2)c(F)c1 [Example 189]	5	3400
COc1cc(F)c([C@@H]2CN(c3cccn(CC(F)(F)F)c3=O)C(=O)[C@H]2NC(=O)c2ccc(OC(F)F)cc2)c(F)c1 [Example 190]	5	130
COc1cc(F)c([C@@H]2CN(c3cccn(CC(F)(F)F)c3=O)C(=O)[C@H]2NC(=O)c2ccc(OC(F)(F)F)cc2)c(F)c1 [Example 191]	5	90
COc1ccc([C@@H]2CN(c3c(C)ccn(CC4CC4)c3=O)C(=O)[C@H]2NC(=O)c2ccc(OC(F)F)cc2)c(F)c1 [Example 192]	5.1	0.8
COc1cc(F)c([C@@H]2CN(c3cccn(C)c3=O)C(=O)[C@H]2NC(=O)c2ccc(Cl)cc2)c(F)c1 [Example 193]	5.1	570
COCC(CN)n1cccc(N2C[C@@H](c3c(F)cc(OC)cc3F)[C@H](NC(=O)c3ccc(OC(F)(F)F)cc3)C2=O)c1=O (some centres unmarked) [Example 194]	5.1	150
COc1cc(F)c([C@@H]2CN(c3c(C)ccn(CC4CC4)c3=O)C(=O)[C@H]2NC(=O)c2ccc(OC(F)F)cc2)c(F)c1 [Example 195]	5.2	1.3
COc1cc(F)c([C@@H]2CN(c3c(Cl)ccn(C)c3=O)C(=O)[C@H]2NC(=O)c2ccc(Cl)cc2)c(F)c1 [Example 196]	5.2	160
CCn1ccc(C)c(N2C[C@@H](c3c(F)cc(OC)cc3F)[C@H](NC(=O)c3ccc(OC(F)F)cc3)C2=O)c1=O [Example 197]	5.2	1.7
COc1cc(F)c([C@@H]2CN(c3nc(N4CCC(O)C4=O)ccc3F)C(=O)[C@H]2NC(=O)c2ccc(OC(F)F)cc2)c(F)c1 (some centres unmarked) [Example 199]	5.2	130

Other lines, results leading:

EC50 (human FPR2) [nM]	EC50 (human FPR1) [nM]	Structure (SMILES)
5.2	290	COCCn1cccc(N2C(=O)[C@@H](NC(=O)c3ccc(OC(F)(F)F)cc3)[C@H](c3c(F)cc(OC)cc3F)[C@H]2C)c1=O [Example 200]
5.3	18	COc1cc(F)c([C@@H]2CN(c3cccn(C4CCOC4)c3=O)C(=O)[C@H]2NC(=O)c2ccc(OC(F)F)cc2)c(F)c1 (some centres unmarked) [Example 201]
5.3	62	COc1cc(F)c([C@@H]2CN(c3cccnc3OCCN3CC4(COC4)C3)C(=O)[C@H]2NC(=O)c2ccc(OC(F)F)cc2)c(F)c1 [Example 202]
5.3	520	COc1cc(F)c([C@@H]2CN(c3nc(C(F)(F)F)ccc3C)C(=O)[C@H]2NC(=O)c2ccc(OC(F)F)cc2)c(F)c1 [Example 204]
5.4	220	CCn1cc(F)cc(N2C[C@@H](c3c(F)cc(OC)cc3F)[C@H](NC(=O)c3ccc(OC(F)F)cc3)C2=O)c1=O [Example 205]
5.4	24	COc1cc(F)c([C@@H]2CN(c3nc(NC(C)=O)ccc3F)C(=O)[C@H]2NC(=O)c2ccc(OC(F)(F)F)cc2)c(F)c1 [Example 206]
5.4	1.4	COCCn1ccc(C)c(N2C[C@@H](c3ccc(OC)cc3F)[C@H](NC(=O)c3ccc(OC(F)F)cc3)C2=O)c1=O [Example 208]
5.5	130	COc1cc(F)c([C@@H]2CN(c3nc(N4CC5(COC5)C4)ccc3F)C(=O)[C@H]2NC(=O)c2ccc(OC(F)F)cc2)c(F)c1 [Example 209]
5.5	190	COc1cc(F)c([C@@H]2CN(c3cccn(CCN4CC5(COC5)C4)c3=O)C(=O)[C@H]2NC(=O)c2ccc(OC(F)(F)F)cc2)c(F)c1 [Example 210]
5.5	25	COc1cc(F)c([C@@H]2CN(c3cccc(N4C[C@H]5C[C@@H]4CO5)n3)C(=O)[C@H]2NC(=O)c2ccc(OC(F)F)cc2)c(F)c1 [Example 211]
5.6	100	COc1cc(F)c([C@@H]2CN(c3nc(C(F)(F)F)ccc3N3CC[C@H](O)C3)C(=O)[C@H]2NC(=O)c2ccc(Cl)cc2)c(F)c1 [Example 212]
5.6	1800	COc1cc(F)c([C@@H]2CN(c3cccc(N4C[C@@H](C)N(C)[C@@H](C)C4)n3)C(=O)[C@@H]2NC(=O)c2ccc(OC(F)F)cc2)c(F)c1 [Example 213]
5.6	2400	COc1cc(N2C[C@@H](C)N(C)[C@@H](C)C2)nc(N2C[C@@H](c3c(F)cc(OC)cc3F)[C@H](NC(=O)c3ccc(OC(F)F)cc3)C2=O)c1 [Example 214]
5.6	41	CCn1cccc(N2C[C@@H](c3c(F)cc(OC)cc3F)[C@H](NC(=O)c3ccc(C)cc3)C2=O)c1=O [Example 215]
5.7	270	COc1cc(F)c([C@@H]2CN(c3nc(N4CC(C)OCC4=O)ccc3F)C(=O)[C@H]2NC(=O)c2ccc(OC(F)F)cc2)c(F)c1 (some centres unmarked) [Example 216]
5.7	42	COCC(CO)n1cccc(N2C(=O)[C@@H](NC(=O)c3ccc(OC(F)F)cc3)[C@H](c3c(F)cc(OC)cc3F)[C@@H]2C)c1=O (some centres unmarked) [Example 217]
5.7	140	COc1cc(F)c([C@@H]2CN(c3cccn(CC(C)(CO)CO)c3=O)C(=O)[C@H]2NC(=O)c2ccc(OC(F)F)cc2)c(F)c1 [Example 218]
5.8	140	COc1cc(F)c([C@@H]2CN(c3cccn(CCO)c3=O)C(=O)[C@H]2NC(=O)c2ccc(OC(F)F)cc2)c(F)c1 [Example 219]
5.8	990	COCCn1cccc(N2C(=O)[C@@H](NC(=O)c3ccc(Cl)cc3)[C@H](c3c(F)cc(OC)cc3F)[C@H]2C)c1=O [Example 220]
6	50	COc1cc(F)c([C@@H]2CN(c3cccn(CCF)c3=O)C(=O)[C@H]2NC(=O)c2ccc(OC(F)(F)F)cc2)c(F)c1 [Example 221]
6.1	100	COc1cc(F)c([C@@H]2CN(c3nc(N4CC5(COC5)C4)ccc3OC)C(=O)[C@H]2NC(=O)c2ccc(OC(F)F)cc2)c(F)c1 [Example 223]
6.1	1900	COc1cc(F)c([C@@H]2CN(c3nccc(N4CCN(S(C)(=O)=O)CC4)c3C(F)(F)F)C(=O)[C@H]2NC(=O)c2ccc(Cl)cc2)c(F)c1 [Example 224]

Source: patent US20230348426A1, “OXOPYRROLIDINE FPR2 AGONISTS” (Bristol-Myers Squibb Company, priority 2020, published 2023)
